Assay results taken from patent US11826373B2, “Methods for treatment of diseases” (Galera Labs, LLC, priority 2011, dated 2023).
Where two headings read alike, the source gives them in different places.

Columns and labels:
beagle dogs = test: 14-day repeat dose toxicity of GC4419 in dog; format: in vivo; settings: beagle dogs, 2.5, 5.0 and 7.5 mg/kg IV over 15 minutes, 14 days
Description: (§1) GC4419 was evaluated in a GLP study in beagle dogs. GC4419 was administered intravenously (IV) over 15 minutes, once daily, to beagle dogs for 14 consecutive days. GC4419 was administered IV into the cephalic vein (4 mL/kg) to 3 groups of dogs (4 animals/sex/group) at dosages of 2.5, 5.0 and 7.5 mg/kg with a fourth group receiving vehicle (26 mM sodium bicarbonate in normal saline). […] All animals recovered from these effects. There were no test-article-related differences in group mean hematology, coagulation, or clinical chemistry parameters or urinalysis parameters after 14 days of treatment in any dosing group. At necropsy on day 15, there were neither test-article related gross macroscopic findings nor test-article-related differences in organ weight. No test-article-related histopathological lesions were present.

[1] = 14-day repeat dose toxicity of GC4419 in dog; format: in vivo, beagle dogs; settings: both sexes, dog, in vivo, beagle dogs, IV over 15 minutes once daily
Description: as §1

HEK-293 cells = test: Anti-proliferative activity in vitro; format: cell-based; settings: 72 hour incubation, LDH assay
Description: Materials and Methods: HEK-293 (CRL-1573) cells were obtained from ATCC and cultured according to ATCC instructions. Complete growth medium consisted of RPMI 1640 supplemented to 10% with fetal bovine serum (FBS). All cell incubations were at 37° C. in 95% air: 5% CO2. Two days before the start of a proliferation experiment, 10^3 HEK-293 cells in exponential growth phase were plated into each well of a 96-well plate. To synchronize cell division, the cells were maintained in complete growth medium for 24 hours at which time the cell monolayers were rinsed once with growth medium without FBS and then incubated overnight in media without FBS. The next morning GC4419 or GC4403 in complete growth medium or complete growth medium alone was added. The plates were incubated for 72 hour, after which time cell numbers were determined using an LDH assay kit. “Cell number” on FIG. 3 represents absorbance at 490 nm.

[2] = Kinetic stability (dissociation of Mn(II) from ligand); format: physicochemical; settings: second-order rate constant for dissociation of Mn(II) from the ligand, in water
TNF-α = test: Plasma TNF-α in the collagen induced arthritis model; format: in vivo, Male Lewis rats
Description: Male Lewis rats (160-180 g) were used for this study. Collagen induced arthritis (CIA) was induced as follows: Bovine type II collagen (CII; Sigma) was dissolved in 0.1 M acetic acid at 2 mg/mL by stirring overnight at 4 C. Rats were immunized with an emulsion of 2 mg/mL CII in incomplete Freund's adjuvant (IFA; Sigma). The emulsion was prepared by homogenizing one part CII into one part IFA at 4 C. On day 1, rats were injected intradermally at the base of the tail with 100 μL of the emulsion. On day 21, a second injection of CII in IFA was administered at the base of the tail. GC4403 and GC4419 were prepared fresh, dissolved in 26 mM sodium bicarbonate buffered saline (Vehicle). All drugs were given by intraperitoneal injection at 1 mL/kg. Animals were randomly divided into groups (n=10 per group). GC4403 and GC4419 were administered once daily at 2, 5 and 10 mg/kg from days 25 through 35.
TNF-α levels were measured from plasma on day 35. The assay was conducted using a colorimetric ELISA kit (Calbiochem-Novabiochem) having a detection limit of 5 pg/mL. Values were expressed as mean±standard error of the mean of 10 observations. Data sets were examined by one-way ANOVA followed by a Bonferroni post-hoc test for multiple comparisons. A p-value of less than 0.05 was considered significant.

[3] = test system: radiation-induced oral mucositis; test: Hamster model of radiation-induced oral mucositis; format: in vivo, Male Syrian golden hamsters; settings: all doses (3-30 mg/kg) administered prior to irradiation
Description: GC4403 and GC4419 were studied in a hamster model of oral mucositis (OM). Irradiation of the hamster cheek pouch induces lesions that are histologically similar to OM that which occurs clinically, and develop and resolve at a similar rate to radiation-induced OM in humans. […] The animals received 40 Gy radiation localized to the everted cheek pouch and were evaluated every second day for the development of inflammation at the radiation site. Inflammation was rated on a scale of 0 (normal) to 5 (total ulceration of pouch) by a trained observer, blinded to the treatment protocol.

Solubility (Table 1) = format: physicochemical
[4] = Catalytic rate constant for the dismutation of superoxide; format: biochemical; settings: pH = 7.4
SD rats = test: Rat GC4403 7-day intravenous toxicity; format: in vivo
Description: GC4403 was Studied in a GLP toxicology study in which it was administered in 26 mM sodium bicarbonate/0.9% sodium chloride to SD rats (10/sex/group) IV (slow bolus 1 mL/kg/minute) at dosages of 0, 1, 3 or 10 mg/kg/day for 7 days (On Day 1, 1/10 male rats receiving 10 mg/kg/day died). The dosage was therefore decreased to 8 mg/kg/day on Day 2 for all surviving animals for the remainder of the study, and the original 10 mg/kg/day group was re-designated as the 8 mg/kg/day group. On Day 4, two females from the 8 mg/kg/day group also died. Clinical signs immediately following dose administration of 8 mg/kg/day were twitching, labored breathing, body drop and prostration. At the scheduled 1-hour observation time, animals appeared normal. Males and females given 8 mg/kg/day had decreased body weight gains, which were accompanied by decreased food consumption in the males only. […] Surviving rats were sacrificed, and all rats sacrificed or found dead were necropsied.

[5] = 2 mg/kg ip once daily days 25 through 35, measured day 35
[6] = 5 mg/kg ip once daily days 25 through 35, measured day 35
[7] = 10 mg/kg ip once daily days 25 through 35, measured day 35
[8] = 26 mM bicarbonate buffered saline, aqueous buffer, at 25° C., pH 8.3, read-out: Solubility in 26 mM bicarbonate buffered saline

Structure (SMILES) | mortality (beagle dogs) | NOAEL at 14 days [1] [mg/kg/day] | proliferation of HEK-293 cells (HEK-293 cells) | Kinetic Stability (kdiss) [2] | plasma TNF-α production (TNF-α; [5]) | plasma TNF-α production (TNF-α; [6]) | plasma TNF-α production (TNF-α; [7]) | development of grade 3 or greater OM [3] | solubility (Solubility (Table 1); [8]) [mg/mL] | solubility (Solubility (Table 1); distilled water, water) [mg/mL] | Catalytic rate constant for the dismutation for superoxide (kcat) [4] | mortality, females died (SD rats; 8 mg/kg/day group, Day 4) | mortality, male rats died (SD rats; 10 mg/kg/day, Day 1) | no observed toxic event level (NOTEL) (SD rats; rat, IV slow bolus injection, 7 days) [mg/kg/day]
[Cl][Mn-5]1234([Cl])[n+]5c6cccc5C[NH+]1[C@H]1CCCC[C@@H]1[NH+]2CC[NH+]3[C@H]1CCCC[C@@H]1[NH+]4C6 (stereo partly shown) [GC4419] | No animals died | 5 | equivalent dose-dependent decrease | kdiss = 0.135 M^−1 s^−1 | did not significantly reduce | significantly reduced | significantly reduced | prevented the development of grade 3 or greater OM | 20 | 30 | kcat = 1.2 × 10^+7 M^−1 sec^−1 | – | – | –
[Cl][Mn-5]1234([Cl])[n+]5c6cccc5C[NH+]1[C@@H]1CCCC[C@H]1[NH+]2CC[NH+]3[C@@H]1CCCC[C@H]1[NH+]4C6 (stereo partly shown) [GC4403] | – | – | equivalent dose-dependent decrease | kdiss = 0.135 M^−1 s^−1 | did not significantly reduce | significantly reduced | significantly reduced | – | 20 | 30 | kcat = 1.2 × 10^+7 M^−1 sec^−1 | two | 1/10 | 3
